Calls of active or inactive are those of the source.
Columns and labels:
[1] = target: T1, Tyrosine-protein phosphatase non-receptor type 22 (Homo sapiens, UniProt Q9Y2R2); format: functional
T1 sequence (Q9Y2R2 whole entry): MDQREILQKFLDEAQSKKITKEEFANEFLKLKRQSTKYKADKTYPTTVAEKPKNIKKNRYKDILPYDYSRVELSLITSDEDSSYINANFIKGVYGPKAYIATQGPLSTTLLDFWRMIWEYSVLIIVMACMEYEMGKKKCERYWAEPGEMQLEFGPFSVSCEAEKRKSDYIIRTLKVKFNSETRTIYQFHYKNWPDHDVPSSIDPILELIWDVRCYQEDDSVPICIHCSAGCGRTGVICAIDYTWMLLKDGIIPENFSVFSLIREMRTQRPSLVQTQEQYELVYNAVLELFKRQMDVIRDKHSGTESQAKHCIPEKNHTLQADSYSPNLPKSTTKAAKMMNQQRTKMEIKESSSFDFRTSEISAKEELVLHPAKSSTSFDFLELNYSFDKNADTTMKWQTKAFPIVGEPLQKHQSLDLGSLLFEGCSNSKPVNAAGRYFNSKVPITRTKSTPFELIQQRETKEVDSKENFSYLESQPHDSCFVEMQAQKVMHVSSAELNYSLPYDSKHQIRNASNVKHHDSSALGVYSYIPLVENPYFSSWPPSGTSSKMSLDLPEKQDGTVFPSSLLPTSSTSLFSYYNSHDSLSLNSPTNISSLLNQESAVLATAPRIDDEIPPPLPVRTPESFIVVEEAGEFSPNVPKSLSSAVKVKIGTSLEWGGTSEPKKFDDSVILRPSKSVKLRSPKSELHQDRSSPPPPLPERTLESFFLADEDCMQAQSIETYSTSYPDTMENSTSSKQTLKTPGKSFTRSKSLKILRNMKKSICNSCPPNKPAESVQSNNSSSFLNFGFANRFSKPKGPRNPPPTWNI

[2] = target: T1, Tyrosine-protein phosphatase non-receptor type 22; format: functional; remark: listed apart in the source
[3] = target: T2, Tyrosine-protein phosphatase non-receptor type 7 (Homo sapiens, UniProt P35236); format: functional
T2 sequence (P35236 whole entry): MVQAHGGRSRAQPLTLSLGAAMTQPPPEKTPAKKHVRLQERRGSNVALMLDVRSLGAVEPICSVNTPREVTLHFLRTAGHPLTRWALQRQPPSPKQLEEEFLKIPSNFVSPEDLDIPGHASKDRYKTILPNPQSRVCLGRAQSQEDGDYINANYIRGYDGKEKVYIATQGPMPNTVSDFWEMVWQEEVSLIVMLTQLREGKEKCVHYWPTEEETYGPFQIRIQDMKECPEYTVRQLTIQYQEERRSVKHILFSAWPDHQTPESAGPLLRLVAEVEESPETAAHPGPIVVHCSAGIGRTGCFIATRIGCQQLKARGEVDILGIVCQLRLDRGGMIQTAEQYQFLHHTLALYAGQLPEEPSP

[4] = target: Bifunctional protein GlmU (Mycobacterium tuberculosis, UniProt P9WMN3); assay: Inhibitors of Mycobacterial Glucosamine-1-phosphate acetyl transferase (GlmU). Secondary screen.; design: species or system Mycobacterium tuberculosis H37Rv
[5] = target: Genome polyprotein (dengue virus type 2, UniProt P29990); assay: Dengue-2 NS5 methyltransferase inhibitors, primary screen, biochemical, confirmation dose response (AID 588689); format: functional
[6] = target: Lysine-specific demethylase 4C (Homo sapiens, UniProt Q9H3R0); assay: GASC-1 (JMJD2C) histone demethylase inhibitors, dose response, biochemical, DELFIA europium, cherry-picked samples (AID 488835); format: functional
[7] = target: Neurotensin receptor type 1 (Homo sapiens, UniProt P30989); format: functional;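 note: Image-based confirmatory dose-response assay measuring agonist activity at NTR1; NTR1-expressing U2OS osteosarcoma cells imaged for beta-arrestin GFP spot formation; agonist potency where compounds increase beta-arrestin recruitment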
[8] = target: Induced myeloid leukemia cell differentiation protein Mcl-1 (Homo sapiens, UniProt Q07820); format: functional
[9] = target: T3, Endoribonuclease toxin MazF (Escherichia coli K-12, UniProt P0AE70); assay: MazF toxin RNase activators, dose response, biochemical, fluorescence, single-stranded RNA substrate, uHTS hits (AID 588481); format: functional
T3 sequence (P0AE70 whole entry): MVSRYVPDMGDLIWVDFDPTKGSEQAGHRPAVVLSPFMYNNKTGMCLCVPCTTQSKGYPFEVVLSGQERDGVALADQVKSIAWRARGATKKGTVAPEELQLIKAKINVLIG

[10] = target: T4, Rac GTPase-activating protein 1 (Homo sapiens, UniProt Q9H0H5); assay: MgcRacGAP GTPase-activating activity inhibitors, confirmation, biochemical, ADP Hunter fluorescence, primary and confirmatory (AID 624330); format: functional
T4 sequence (Q9H0H5 whole entry): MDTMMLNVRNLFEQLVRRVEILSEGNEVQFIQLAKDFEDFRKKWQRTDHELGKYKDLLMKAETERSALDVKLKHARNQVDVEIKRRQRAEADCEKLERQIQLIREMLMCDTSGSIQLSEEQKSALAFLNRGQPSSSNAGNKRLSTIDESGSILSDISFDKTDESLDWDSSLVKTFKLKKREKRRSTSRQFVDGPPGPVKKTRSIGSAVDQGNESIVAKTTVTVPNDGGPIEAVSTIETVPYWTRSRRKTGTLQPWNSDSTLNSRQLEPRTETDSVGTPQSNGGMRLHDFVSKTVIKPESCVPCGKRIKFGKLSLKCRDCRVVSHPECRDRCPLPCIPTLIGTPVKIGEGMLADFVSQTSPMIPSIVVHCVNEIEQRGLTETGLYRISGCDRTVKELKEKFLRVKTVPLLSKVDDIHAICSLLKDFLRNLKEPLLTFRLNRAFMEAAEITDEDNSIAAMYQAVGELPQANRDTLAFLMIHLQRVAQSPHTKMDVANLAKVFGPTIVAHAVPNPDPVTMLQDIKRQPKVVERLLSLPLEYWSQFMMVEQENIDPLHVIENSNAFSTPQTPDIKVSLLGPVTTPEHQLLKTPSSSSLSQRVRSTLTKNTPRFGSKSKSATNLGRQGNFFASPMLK

[11] = HEp-2 cell cytotoxicity, dose response, cytotoxicity control for RSV inhibitor project, HTS (AID 2410); format: functional; details: human respiratory syncytial virus
[12] = target: T3, Endoribonuclease toxin MazF; assay: fluorescent RNA oligo signal without MazF, dose response, counter-screen for MazEF activator project, biochemical, fluorescence, single-stranded RNase substrate (AID 588502); format: functional
[13] = insulin promoter down-regulators in MIN6 cells, imaging, high-content screening, mouse beta cells (AID 1628); format: functional
[14] = cytotoxicity in MIN6 insulinoma cells, dose response, cytotoxicity control, cell-based, mouse insulinoma (AID 2122); format: functional;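 note: confirmatory high-throughput counterscreen run to flag cytotoxic compounds; mouse MIN-6 beta cells carrying an insulin promoter eGFP reporter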
[15] = target: UDP-galactopyranose mutase (Mycobacterium tuberculosis, UniProt P9WIQ1); assay: Inhibitors of Mycobacterium tuberculosis UDP-galactopyranose mutase (UGM) enzyme Measured in Biochemical System Using Plate Reader - 2105-02_Inhibitor_Dose_CherryPick_Activity. [Related pubchem assays (depositor defined):AID504439]
[16] = target: T5, Histone-lysine N-methyltransferase NSD2 (Homo sapiens, UniProt O96028); format: biochemical
T5 sequence (O96028 whole entry): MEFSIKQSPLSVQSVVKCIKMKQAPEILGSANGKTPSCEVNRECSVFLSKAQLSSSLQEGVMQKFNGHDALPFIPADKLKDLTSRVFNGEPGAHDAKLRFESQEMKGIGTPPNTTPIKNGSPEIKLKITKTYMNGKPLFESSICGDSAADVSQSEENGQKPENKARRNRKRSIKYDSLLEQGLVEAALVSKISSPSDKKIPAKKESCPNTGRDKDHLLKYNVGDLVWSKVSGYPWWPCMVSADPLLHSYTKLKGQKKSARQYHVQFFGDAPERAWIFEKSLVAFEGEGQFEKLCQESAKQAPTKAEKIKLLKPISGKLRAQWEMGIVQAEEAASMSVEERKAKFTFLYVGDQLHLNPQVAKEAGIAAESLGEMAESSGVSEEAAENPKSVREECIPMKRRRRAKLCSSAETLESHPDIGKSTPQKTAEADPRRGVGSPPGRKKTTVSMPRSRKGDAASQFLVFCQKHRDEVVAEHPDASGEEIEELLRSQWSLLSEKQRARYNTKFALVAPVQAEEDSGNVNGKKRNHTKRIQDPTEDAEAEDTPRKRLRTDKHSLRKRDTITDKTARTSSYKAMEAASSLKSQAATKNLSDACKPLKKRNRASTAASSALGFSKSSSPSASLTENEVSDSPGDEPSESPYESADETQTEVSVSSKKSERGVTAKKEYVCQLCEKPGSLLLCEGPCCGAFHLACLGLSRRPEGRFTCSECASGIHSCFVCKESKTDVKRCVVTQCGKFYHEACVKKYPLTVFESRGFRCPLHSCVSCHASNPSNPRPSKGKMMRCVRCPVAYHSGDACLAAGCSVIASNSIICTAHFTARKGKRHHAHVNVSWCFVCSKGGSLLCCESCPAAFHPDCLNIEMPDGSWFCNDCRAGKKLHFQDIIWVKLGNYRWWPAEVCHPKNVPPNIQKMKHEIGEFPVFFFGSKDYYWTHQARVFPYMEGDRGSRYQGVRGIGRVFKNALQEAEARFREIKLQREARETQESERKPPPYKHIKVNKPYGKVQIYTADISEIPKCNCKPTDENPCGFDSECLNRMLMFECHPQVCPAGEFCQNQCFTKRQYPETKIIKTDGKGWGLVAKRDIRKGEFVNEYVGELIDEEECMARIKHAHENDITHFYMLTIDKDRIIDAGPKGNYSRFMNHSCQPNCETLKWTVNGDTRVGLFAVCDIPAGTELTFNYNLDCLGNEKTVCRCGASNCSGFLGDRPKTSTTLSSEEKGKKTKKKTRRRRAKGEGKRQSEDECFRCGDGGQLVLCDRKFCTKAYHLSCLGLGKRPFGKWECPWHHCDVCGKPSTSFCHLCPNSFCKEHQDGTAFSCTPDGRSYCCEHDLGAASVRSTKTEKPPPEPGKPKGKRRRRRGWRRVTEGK

[17] = test system: Streptococcus; assay: Group A Streptococcus viability loss, dose response, counter-screen for streptokinase expression inhibitor project, luminescence, BacTiterGlo (AID 1915); format: functional, organism-based;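 note: potency for reduction of bacterial viability or growth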
[18] = test system: INS1; assay: beta cell apoptosis inhibitors, cytokine rescue, dose response, luminescence, retest (AID 449756); format: functional, cell-based; details: Rattus norvegicus, INS1;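 note: cell death triggered by IL-1 beta plus TNF-alpha plus IFN-gamma mixture; protective hits raise ATP signal compared with cytokine alone wells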
[19] = Luminescence Cell-Based Dose Retest to Confirm Inhibitors of Cancer Stem Cells. [Related pubchem assays (depositor defined):AID2717, AID2721]; format: functional; details: Homo sapiens
[20] = test system: Streptococcus sp. 'group A'; assay: growth inhibition of control SK(-) GAS strain, dose response, counter-screen for streptokinase expression inhibitor project, luminescence, kanamycin, BacTiterGlo, confirmation (AID 1900); format: functional, organism-based
[21] = test system: HEK293; assay: inhibitors of LMP1-driven NF-kB reporter, dose response, cell-based, HEK293, luciferase, cherry-pick (AID 588343); format: functional; details: Homo sapiens
[22] = test system: Vero; assay: cells; format: functional; details: Chlorocebus sabaeus
[23] = test system: HEK293; assay: cells; details: Homo sapiens
[24] = test system: HEK293; assay: cells; details: Homo sapiens; remark: listed apart in the source
[25] = test system: Vero; assay: cells; format: functional, cell-based; details: Chlorocebus sabaeus
[26] = target: Sphingosine 1-phosphate receptor 1 (Homo sapiens, UniProt P21453); assay: Late stage counterscreen assay for S1P4 antagonists: Fluorescence dose response cell-based screening assay for antagonists of the Sphingosine 1-Phosphate Receptor 1 (S1P1). [Related pubchem assays (depositor defined):AID1510, AID1524, AID1692, AID1853, AID2332, AID489009, AID489017]; format: functional
[27] = target: Sphingosine 1-phosphate receptor 2 (Homo sapiens, UniProt O95136); assay: Late stage counterscreen assay for S1P4 antagonists: Fluorescence dose response cell-based screening assay for antagonists of the Sphingosine 1-Phosphate Receptor 2 (S1P2). [Related pubchem assays (depositor defined):AID1510, AID1524, AID1692, AID1853, AID2332, AID489009, AID489017]; format: functional
[28] = target: Sphingosine 1-phosphate receptor 5 (Homo sapiens, UniProt Q9H228); assay: Late stage counterscreen assay for S1P4 antagonists: Fluorescence dose response cell-based screening assay for antagonists of the Sphingosine 1-Phosphate Receptor 5 (S1P5). [Related pubchem assays (depositor defined):AID1510, AID1524, AID1692, AID1853, AID2332, AID489009, AID489017]; format: functional
[29] = target: Sphingosine 1-phosphate receptor 3 (Homo sapiens, UniProt Q99500); assay: Late stage counterscreen assay for S1P4 antagonists: Fluorescence dose response cell-based screening assay for antagonists of the Sphingosine 1-Phosphate Receptor 3 (S1P3). [Related pubchem assays (depositor defined):AID1510, AID1524, AID1692, AID1853, AID2332, AID489009, AID489017]; format: functional
Sequence of Sphingosine 1-phosphate receptor 3 (Q99500 whole entry): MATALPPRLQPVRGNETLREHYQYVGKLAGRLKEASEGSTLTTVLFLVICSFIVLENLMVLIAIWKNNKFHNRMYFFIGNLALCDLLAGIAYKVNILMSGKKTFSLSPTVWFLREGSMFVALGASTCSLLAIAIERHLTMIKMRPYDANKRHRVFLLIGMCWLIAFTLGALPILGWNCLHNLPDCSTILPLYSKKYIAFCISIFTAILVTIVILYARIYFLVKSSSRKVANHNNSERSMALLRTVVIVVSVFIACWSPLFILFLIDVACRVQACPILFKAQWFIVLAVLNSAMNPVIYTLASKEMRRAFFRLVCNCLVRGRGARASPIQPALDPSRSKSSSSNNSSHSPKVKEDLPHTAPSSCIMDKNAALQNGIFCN

Sequence of UDP-galactopyranose mutase (P9WIQ1 whole entry): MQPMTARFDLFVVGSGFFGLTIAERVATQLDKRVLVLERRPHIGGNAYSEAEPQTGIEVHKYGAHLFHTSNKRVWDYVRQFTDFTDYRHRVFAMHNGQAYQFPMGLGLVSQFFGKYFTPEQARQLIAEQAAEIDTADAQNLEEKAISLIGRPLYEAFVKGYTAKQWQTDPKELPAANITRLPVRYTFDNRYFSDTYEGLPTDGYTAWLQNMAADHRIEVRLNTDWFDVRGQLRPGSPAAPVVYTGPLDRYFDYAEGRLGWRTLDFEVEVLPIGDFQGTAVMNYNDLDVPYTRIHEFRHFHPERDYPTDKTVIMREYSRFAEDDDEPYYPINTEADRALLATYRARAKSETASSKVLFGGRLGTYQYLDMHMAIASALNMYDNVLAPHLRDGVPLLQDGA
Sequence of Induced myeloid leukemia cell differentiation protein Mcl-1 (Q07820 whole entry): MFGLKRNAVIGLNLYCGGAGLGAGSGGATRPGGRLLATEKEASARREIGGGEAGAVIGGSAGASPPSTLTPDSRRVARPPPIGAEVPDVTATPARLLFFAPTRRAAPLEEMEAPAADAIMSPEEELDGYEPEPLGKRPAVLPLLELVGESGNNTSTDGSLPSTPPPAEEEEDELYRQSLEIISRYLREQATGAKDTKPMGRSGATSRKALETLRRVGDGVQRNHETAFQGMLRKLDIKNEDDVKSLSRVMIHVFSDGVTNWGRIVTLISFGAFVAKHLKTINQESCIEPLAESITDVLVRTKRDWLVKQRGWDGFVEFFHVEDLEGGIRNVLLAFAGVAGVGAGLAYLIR
Sequence of Lysine-specific demethylase 4C (Q9H3R0 whole entry): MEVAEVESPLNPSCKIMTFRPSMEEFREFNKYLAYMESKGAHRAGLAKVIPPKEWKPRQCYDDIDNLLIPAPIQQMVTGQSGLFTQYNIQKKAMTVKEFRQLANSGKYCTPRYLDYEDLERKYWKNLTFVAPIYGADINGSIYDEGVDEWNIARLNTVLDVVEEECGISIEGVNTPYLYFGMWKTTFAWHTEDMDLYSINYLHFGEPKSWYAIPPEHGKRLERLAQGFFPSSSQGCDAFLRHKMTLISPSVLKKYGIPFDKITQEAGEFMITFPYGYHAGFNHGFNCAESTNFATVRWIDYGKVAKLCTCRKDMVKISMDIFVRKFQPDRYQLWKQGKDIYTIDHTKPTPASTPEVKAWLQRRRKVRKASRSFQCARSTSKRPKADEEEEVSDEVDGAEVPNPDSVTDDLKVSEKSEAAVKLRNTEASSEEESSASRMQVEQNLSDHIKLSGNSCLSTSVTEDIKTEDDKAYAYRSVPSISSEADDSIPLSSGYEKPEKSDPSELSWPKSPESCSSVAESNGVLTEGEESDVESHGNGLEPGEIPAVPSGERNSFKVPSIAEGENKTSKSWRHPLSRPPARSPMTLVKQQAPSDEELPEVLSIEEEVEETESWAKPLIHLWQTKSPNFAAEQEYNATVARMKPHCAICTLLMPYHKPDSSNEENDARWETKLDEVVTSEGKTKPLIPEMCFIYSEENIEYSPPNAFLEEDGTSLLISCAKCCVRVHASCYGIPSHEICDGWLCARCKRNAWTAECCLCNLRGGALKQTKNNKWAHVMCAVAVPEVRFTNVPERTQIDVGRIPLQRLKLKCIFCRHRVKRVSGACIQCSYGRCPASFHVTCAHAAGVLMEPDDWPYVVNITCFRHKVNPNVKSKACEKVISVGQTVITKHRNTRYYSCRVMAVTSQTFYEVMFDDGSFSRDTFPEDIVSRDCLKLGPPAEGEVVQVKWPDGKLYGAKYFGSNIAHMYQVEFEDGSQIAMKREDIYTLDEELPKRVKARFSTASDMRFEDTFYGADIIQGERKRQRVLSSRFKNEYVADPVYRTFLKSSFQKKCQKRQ
Sequence of Sphingosine 1-phosphate receptor 1 (P21453 whole entry): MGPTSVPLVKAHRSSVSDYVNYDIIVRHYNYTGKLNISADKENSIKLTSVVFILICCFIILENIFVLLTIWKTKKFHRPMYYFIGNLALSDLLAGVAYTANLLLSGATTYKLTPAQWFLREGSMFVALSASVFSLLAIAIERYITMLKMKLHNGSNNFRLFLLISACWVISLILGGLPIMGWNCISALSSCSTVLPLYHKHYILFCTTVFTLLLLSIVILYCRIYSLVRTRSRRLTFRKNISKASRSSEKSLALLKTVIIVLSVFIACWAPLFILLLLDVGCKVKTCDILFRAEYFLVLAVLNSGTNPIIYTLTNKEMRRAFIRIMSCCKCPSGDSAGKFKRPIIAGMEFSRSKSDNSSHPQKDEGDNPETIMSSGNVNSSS
Sequence of Sphingosine 1-phosphate receptor 2 (O95136 whole entry): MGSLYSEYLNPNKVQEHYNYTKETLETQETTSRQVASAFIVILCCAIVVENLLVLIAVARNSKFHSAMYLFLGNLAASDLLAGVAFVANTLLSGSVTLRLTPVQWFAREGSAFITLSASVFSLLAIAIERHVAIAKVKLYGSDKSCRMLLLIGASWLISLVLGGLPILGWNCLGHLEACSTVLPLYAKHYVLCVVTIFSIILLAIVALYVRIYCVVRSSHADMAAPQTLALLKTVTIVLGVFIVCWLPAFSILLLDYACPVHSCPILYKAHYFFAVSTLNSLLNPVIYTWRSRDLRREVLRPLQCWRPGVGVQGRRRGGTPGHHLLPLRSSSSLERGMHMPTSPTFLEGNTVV
Sequence of Genome polyprotein (P29990 2492-3391 limits assumed): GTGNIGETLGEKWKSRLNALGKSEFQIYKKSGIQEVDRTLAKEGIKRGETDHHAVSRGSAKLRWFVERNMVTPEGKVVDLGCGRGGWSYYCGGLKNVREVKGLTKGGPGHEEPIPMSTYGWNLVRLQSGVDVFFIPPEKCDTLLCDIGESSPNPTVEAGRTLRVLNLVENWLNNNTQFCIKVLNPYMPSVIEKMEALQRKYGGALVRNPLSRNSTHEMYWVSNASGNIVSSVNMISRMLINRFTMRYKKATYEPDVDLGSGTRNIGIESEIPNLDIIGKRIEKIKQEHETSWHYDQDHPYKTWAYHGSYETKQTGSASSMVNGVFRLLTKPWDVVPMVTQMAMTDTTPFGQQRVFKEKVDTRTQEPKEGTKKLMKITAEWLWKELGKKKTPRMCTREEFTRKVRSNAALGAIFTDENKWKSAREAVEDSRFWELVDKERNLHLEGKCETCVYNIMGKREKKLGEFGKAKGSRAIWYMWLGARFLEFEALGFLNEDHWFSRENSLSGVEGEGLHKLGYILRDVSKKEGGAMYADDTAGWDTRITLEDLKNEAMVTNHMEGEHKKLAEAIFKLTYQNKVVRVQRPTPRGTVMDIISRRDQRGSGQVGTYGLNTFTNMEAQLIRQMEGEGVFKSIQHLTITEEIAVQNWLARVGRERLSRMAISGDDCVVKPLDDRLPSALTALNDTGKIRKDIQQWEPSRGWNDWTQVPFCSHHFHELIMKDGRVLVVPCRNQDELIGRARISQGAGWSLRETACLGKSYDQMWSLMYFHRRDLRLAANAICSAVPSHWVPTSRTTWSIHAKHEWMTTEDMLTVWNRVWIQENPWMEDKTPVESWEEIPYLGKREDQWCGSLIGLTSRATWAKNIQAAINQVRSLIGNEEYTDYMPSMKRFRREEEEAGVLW
Sequence of Sphingosine 1-phosphate receptor 5 (Q9H228 whole entry): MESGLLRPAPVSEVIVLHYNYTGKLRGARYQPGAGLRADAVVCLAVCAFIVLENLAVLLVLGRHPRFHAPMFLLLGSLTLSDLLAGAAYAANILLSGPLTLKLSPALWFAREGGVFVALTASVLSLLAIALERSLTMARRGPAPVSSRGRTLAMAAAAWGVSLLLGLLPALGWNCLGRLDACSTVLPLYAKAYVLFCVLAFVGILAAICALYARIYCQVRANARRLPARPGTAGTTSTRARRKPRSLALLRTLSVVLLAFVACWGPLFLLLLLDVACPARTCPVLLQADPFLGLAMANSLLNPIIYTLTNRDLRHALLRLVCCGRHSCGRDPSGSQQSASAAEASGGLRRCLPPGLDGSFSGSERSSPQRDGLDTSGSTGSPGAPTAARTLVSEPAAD
Sequence of Bifunctional protein GlmU (P9WMN3 whole entry): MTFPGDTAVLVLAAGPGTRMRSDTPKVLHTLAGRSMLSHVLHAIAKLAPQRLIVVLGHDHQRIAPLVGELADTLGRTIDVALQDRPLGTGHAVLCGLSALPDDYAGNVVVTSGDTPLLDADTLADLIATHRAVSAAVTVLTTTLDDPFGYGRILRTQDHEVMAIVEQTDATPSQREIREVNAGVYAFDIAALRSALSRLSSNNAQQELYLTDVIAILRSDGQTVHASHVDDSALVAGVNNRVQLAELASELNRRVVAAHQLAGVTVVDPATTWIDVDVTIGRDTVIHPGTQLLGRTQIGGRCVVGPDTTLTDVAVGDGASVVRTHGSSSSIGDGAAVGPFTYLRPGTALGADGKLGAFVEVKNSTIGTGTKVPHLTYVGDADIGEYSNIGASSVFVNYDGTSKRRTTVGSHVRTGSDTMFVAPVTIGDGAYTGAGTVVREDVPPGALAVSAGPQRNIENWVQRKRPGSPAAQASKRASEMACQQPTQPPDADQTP

Cc1ccc(-n2c(=O)c3sccc3n(CC(=O)NCC3CCCO3)c2=O)cc1F (configuration not stated)
IC50 [1]: > 79.4 µM (inactive) | IC50 [2]: > 79.4 µM (inactive) | IC50 [3]: > 79.4 µM (inactive)

O=C1NC(=O)C(=Cc2ccc(Sc3ccccc3)o2)C(=O)N1
IC50 [4]: 369 µM (active) | IC50 [5]: > 100 µM (active) | AC50 [6]: 10.6 µM (active) | EC50 [7]: 11.2 µM (active)

O=c1oc2ccccc2cc1-c1csc(Nc2ccc(O)cc2)n1
IC50 [8]: 2.76 µM (active) | EC50 [9]: > 99 µM (inactive) | IC50 [10]: 70.1 µM (active) | CC50 [11]: > 50 µM (active) | EC50 [12]: > 99 µM (inactive) | IC50 [13]: 2.81 µM (active) | IC50 [14]: 4.07 µM (active)

COc1ccc(-n2c(C)ccc2-c2ccccc2)cn1
AC50 [15]: 58 µM (active) | AC50 [16]: > 20 µM (inactive)

COc1ccc(O)c(/C=N/Nc2nc(Nc3ccccc3)nc(-n3nc(C)cc3C)n2)c1
EC50 [17]: 2.16 µM (active) | AC50 [18]: 1.01 µM (active) | AC50 [19]: 4.75 µM (active) | EC50 [20]: 1.07 µM (active) | AC50 [21]: 10.7 µM (active) | CC50 [22]: 11.8 µM (active) | EC50 [23]: > 59.6 µM (inactive) | IC50 [13]: 1.67 µM (active) | EC50 [24]: > 59.6 µM (inactive) | IC50 [25]: > 12.5 µM (active) | IC50 [14]: 0.878 µM (active)

Oc1[nH]c2ccc(Br)cc2c1N=Nc1ccc(F)cc1
AC50 [15]: 91.6 µM (active) | EC50 [9]: > 99 µM (inactive) | EC50 [12]: 45.8 µM (inactive)

Cc1cccc(C)c1NC(=O)c1ccc(-c2cc(F)ccc2F)o1
IC50 [26]: > 25 µM (inactive) | IC50 [27]: 16.9 µM (inactive) | IC50 [28]: > 25 µM (inactive) | IC50 [29]: > 25 µM (inactive)

COc1ccc(OC(C)C(=O)N2CC(C)OC(C)C2)cc1 (configuration not stated)
IC50 [1]: > 79.4 µM (inactive) | IC50 [2]: > 79.4 µM (inactive) | IC50 [3]: > 79.4 µM (inactive)

Source: ChEMBL document CHEMBL1201862, “PubChem BioAssay data set” (2004)
